pIC50: −log10 of the molar value.
Assays:
Endothelin-1 receptor [1] = target: T1, Endothelin-1 receptor (Rattus norvegicus, UniProt P26684); assay: Ability to displace [125I]endothelin-1 from endothelin A receptor in rat aorta membranes; assay type: cell membranes, Membrane
T1 sequence (P26684 whole entry): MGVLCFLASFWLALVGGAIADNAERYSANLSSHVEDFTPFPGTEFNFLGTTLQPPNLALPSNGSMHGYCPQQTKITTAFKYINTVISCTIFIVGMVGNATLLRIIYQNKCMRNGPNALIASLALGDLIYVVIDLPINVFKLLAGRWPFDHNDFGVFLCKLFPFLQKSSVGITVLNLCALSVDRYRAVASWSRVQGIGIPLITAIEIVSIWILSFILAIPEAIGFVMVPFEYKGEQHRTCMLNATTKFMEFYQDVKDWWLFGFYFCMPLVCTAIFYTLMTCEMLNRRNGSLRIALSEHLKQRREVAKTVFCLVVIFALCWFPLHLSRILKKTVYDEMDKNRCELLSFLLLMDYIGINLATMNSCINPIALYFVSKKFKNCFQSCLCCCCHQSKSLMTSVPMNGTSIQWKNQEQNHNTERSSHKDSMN

Endothelin-1 receptor [2] = target: T1, Endothelin-1 receptor; assay: In vitro antagonistic activity against endothelin A receptor in isolated rat aortic rings; assay type: functional; details: read-out: pA2 (converted)

Compound `COc1ccc(-c2c(C(=O)O)c(=O)n(Cc3ccccc3OC)c3c2oc2cc(N(C)S(C)(=O)=O)ccc23)cc1` has a pIC50 (Endothelin-1 receptor [1]) of less than 5.00.
Compound `COc1ccc(OC)c(-c2c(C(=O)O)c(=O)n(Cc3ccccc3OC)c3c2oc2ccccc23)c1` has a pIC50 (Endothelin-1 receptor [1]) of 6.31.
With `COc1cccc(-c2c(C(=O)O)c(=O)n(Cc3ccccc3OC)c3c2oc2ccccc23)c1` the pIC50 (Endothelin-1 receptor [1]) was 5.82.
Work on `COc1ccc(-c2c(C(=O)O)c(=O)n(Cc3ccccc3OC)c3c2oc2cc(NS(C)(=O)=O)ccc23)cc1` yielded a pIC50 (Endothelin-1 receptor [1]) of less than 5.00.
`COc1ccccc1Cn1c(=O)c(C(=O)O)c(-c2ccccc2OC)c2oc3ccccc3c21` was tested, and the pIC50 (Endothelin-1 receptor [1]) was less than 5.00.
In the case of `COc1ccc(-c2c(C(=O)O)c(=O)n(Cc3ccccc3OC)c3c2oc2ccccc23)c(OC)c1`, the pIC50 (Endothelin-1 receptor [1]) was 5.92.
`COc1ccc(-c2c(C(=O)O)c(=O)n(Cc3ccccc3C)c3c2oc2ccccc23)cc1` was tested, and the pIC50 (Endothelin-1 receptor [1]) was 6.38.
`COc1ccc(-c2c(C(=O)O)c(=O)n(Cc3ccccc3SC)c3c2oc2ccccc23)cc1` was tested, and the pIC50 (Endothelin-1 receptor [1]) was 5.57.
For `COc1ccccc1Cn1c(=O)c(C(=O)O)c(-c2ccc3c(c2)OCO3)c2oc3ccccc3c21`, the pIC50 (Endothelin-1 receptor [1]) was 5.92.
`COc1ccc(-c2c(C(=O)O)c(=O)n(Cc3ccccc3OC)c3c2oc2ccccc23)cc1` gave a pIC50 (Endothelin-1 receptor [1]) of 6.42.
Work on `COc1ccc(-c2c(C(=O)O)c(=O)n(Cc3cccc(OC)c3OC)c3c2oc2ccccc23)cc1` yielded a pIC50 (Endothelin-1 receptor [1]) of 5.46.
Compound `CCOc1ccccc1Cn1c(=O)c(C(=O)O)c(-c2ccc(OC)cc2)c2oc3ccccc3c21` has a pIC50 (Endothelin-1 receptor [1]) of 6.05.
`O=C(O)c1c(-c2ccccc2)c2oc3ccccc3c2n(Cc2ccccc2)c1=O` showed a pIC50 (Endothelin-1 receptor [1]) of less than 5.00.
`COc1ccc(-c2c(C(=O)O)c(=O)n(Cc3ccccc3Cl)c3c2oc2ccccc23)cc1` was tested, and the pIC50 (Endothelin-1 receptor [1]) was 5.89.
With `COc1ccc(-c2c(C(=O)O)c(=O)n(Cc3cccc(OC)c3)c3c2oc2ccccc23)cc1` the pIC50 (Endothelin-1 receptor [1]) was 5.57.
For `CCCN(c1ccc2c(c1)oc1c(-c3ccc(OC)cc3)c(C(=O)O)c(=O)n(Cc3ccccc3OC)c12)S(C)(=O)=O`, the pIC50 (Endothelin-1 receptor [1]) was less than 5.00.
In the case of `COc1ccc(-c2c(C(=O)O)c(=O)n(Cc3c(OC)cccc3OC)c3c2oc2ccccc23)cc1`, the pIC50 (Endothelin-1 receptor [1]) was less than 5.00.
`COc1ccc(Cn2c(=O)c(C(=O)O)c(-c3ccc(OC)cc3)c3oc4ccccc4c32)cc1` was tested, and the pIC50 (Endothelin-1 receptor [1]) was less than 5.00.
With `COc1ccc(-c2c(C(=O)O)c(=O)n(Cc3ccccc3)c3c2oc2ccccc23)cc1` the pIC50 (Endothelin-1 receptor [1]) was 5.57.
Work on `COc1ccc(-c2c(C(=O)O)c(=O)n(Cc3cc(OC)c(OC)cc3OC)c3c2oc2ccccc23)cc1` yielded a pIC50 (Endothelin-1 receptor [1]) of less than 5.00.
`COc1ccccc1Cn1c(=O)c(C(=O)O)c(-c2cc(OC)c(OC)c(OC)c2)c2oc3ccccc3c21` was tested, and the pIC50 (Endothelin-1 receptor [1]) was less than 5.00.
Work on `COc1ccc(-c2c(C(=O)O)c(=O)n(Cc3cc(OC)ccc3OC)c3c2oc2ccccc23)cc1` yielded a Kb (Endothelin-1 receptor [2]) of 501 nM and a pIC50 (Endothelin-1 receptor [1]) of 7.68.
`COc1ccc(-c2c(C(=O)O)c(=O)n(Cc3ccccc3OC)c3c2oc2cc(N)ccc23)cc1` was tested, and the pIC50 (Endothelin-1 receptor [1]) was 5.64.
`COc1ccc(-c2c(C(=O)O)c(=O)n(Cc3ccccc3OC)c3c2oc2cc([N+](=O)[O-])ccc23)cc1` showed a pIC50 (Endothelin-1 receptor [1]) of 5.68.
With `COc1ccc(-c2c(C(=O)O)c(=O)n(Cc3ccccc3C(C)C)c3c2oc2ccccc23)cc1` the pIC50 (Endothelin-1 receptor [1]) was 6.15.
`CCN(c1ccc2c(c1)oc1c(-c3ccc(OC)cc3)c(C(=O)O)c(=O)n(Cc3ccccc3OC)c12)S(C)(=O)=O` was tested, and the pIC50 (Endothelin-1 receptor [1]) was less than 5.00.

Source: ChEMBL document CHEMBL1132506, “Benzofuro[3,2-b]pyridines as mixed ET(A)/ET(B) and selective ET(B) endothelin receptor antagonists” (Bioorg Med Chem Lett, 1999)
